Measurements reported in ChEMBL document CHEMBL3046781, “Resistance of Helicoverpa assulta (Guenée) (Lepidoptera: Noctuidae) to fenvalerate, phoxim and methomyl in China” (2009).

What was measured:
Format in all cases: functional
[1] = tested on: Helicoverpa assulta; assay: Resistance factor, ratio of LD50 for sixth-instar larvae of Helicoverpa assulta YN1 to LD50 for sixth-instar larvae of Helicoverpa assulta at 39 to 12630 mg/l
[2] = tested on: Helicoverpa assulta; assay: Insecticidal activity against sixth-instar larvae of Helicoverpa assulta YN3 at 39 to 12630 mg/l after 48 hr by chi-squared analysis
[3] = tested on: Helicoverpa assulta; assay: Resistance factor, ratio of LD50 for sixth-instar larvae of Helicoverpa assulta YN7 to LD50 for sixth-instar larvae of Helicoverpa assulta at 39 to 12630 mg/l
[4] = tested on: Helicoverpa assulta; assay: Insecticidal activity against sixth-instar larvae of Helicoverpa assulta GZ1 at 39 to 12630 mg/l after 48 hr by chi-squared analysis
[5] = tested on: Helicoverpa assulta; assay: Resistance factor, ratio of LD50 for sixth-instar larvae of Helicoverpa assulta AH3 to LD50 for sixth-instar larvae of Helicoverpa assulta at 39 to 12630 mg/l
[6] = tested on: Helicoverpa assulta; assay: Resistance factor, ratio of LD50 for sixth-instar larvae of Helicoverpa assulta FJ1 to LD50 for sixth-instar larvae of Helicoverpa assulta at 39 to 12630 mg/l
[7] = tested on: Helicoverpa assulta; assay: Resistance factor, ratio of LD50 for sixth-instar larvae of Helicoverpa assulta HN1 to LD50 for sixth-instar larvae of Helicoverpa assulta at 39 to 12630 mg/l
[8] = tested on: Helicoverpa assulta; assay: Resistance factor, ratio of LD50 for sixth-instar larvae of Helicoverpa assulta AH2 to LD50 for sixth-instar larvae of Helicoverpa assulta at 39 to 12630 mg/l
[9] = tested on: Helicoverpa assulta; assay: Insecticidal activity against sixth-instar larvae of Helicoverpa assulta YN7 at 1.8 to 183360 mg/l after 48 hr by chi-squared analysis
[10] = tested on: Helicoverpa assulta; assay: Insecticidal activity against sixth-instar larvae of Helicoverpa assulta at 1.8 to 183360 mg/l after 48 hr by chi-squared analysis
[11] = tested on: Helicoverpa assulta; assay: Insecticidal activity against sixth-instar larvae of Helicoverpa assulta YN2 at 1.8 to 183360 mg/l after 48 hr by chi-squared analysis
[12] = tested on: Helicoverpa assulta; assay: Insecticidal activity against sixth-instar larvae of Helicoverpa assulta FJ3 at 1.8 to 183360 mg/l after 48 hr by chi-squared analysis
[13] = tested on: Helicoverpa assulta; assay: Insecticidal activity against sixth-instar larvae of Helicoverpa assulta YN3 at 1.8 to 183360 mg/l after 48 hr by chi-squared analysis
[14] = tested on: Helicoverpa assulta; assay: Resistance factor, ratio of LD50 for sixth-instar larvae of Helicoverpa assulta HN2 to LD50 for sixth-instar larvae of Helicoverpa assulta at 1.8 to 183360 mg/l
[15] = tested on: Helicoverpa assulta; assay: Insecticidal activity against sixth-instar larvae of Helicoverpa assulta YN8 at 1.8 to 183360 mg/l after 48 hr by chi-squared analysis
[16] = tested on: Helicoverpa assulta; assay: Resistance factor, ratio of LD50 for sixth-instar larvae of Helicoverpa assulta YN6 to LD50 for sixth-instar larvae of Helicoverpa assulta at 1.8 to 183360 mg/l
[17] = tested on: Helicoverpa assulta; assay: Resistance factor, ratio of LD50 for sixth-instar larvae of Helicoverpa assulta YN8 to LD50 for sixth-instar larvae of Helicoverpa assulta at 1.8 to 183360 mg/l
[18] = tested on: Helicoverpa assulta; assay: Resistance factor, ratio of LD50 for sixth-instar larvae of Helicoverpa assulta FJ2 to LD50 for sixth-instar larvae of Helicoverpa assulta at 1.8 to 183360 mg/l
[19] = tested on: Helicoverpa assulta; assay: Insecticidal activity against sixth-instar larvae of Helicoverpa assulta YN4 at 1.8 to 183360 mg/l after 48 hr by chi-squared analysis
[20] = tested on: Helicoverpa assulta; assay: Resistance factor, ratio of LD50 for sixth-instar larvae of Helicoverpa assulta YN4 to LD50 for sixth-instar larvae of Helicoverpa assulta at 21 to 3390 mg/l
[21] = tested on: Helicoverpa assulta; assay: Insecticidal activity against sixth-instar larvae of Helicoverpa assulta AH1 at 21 to 3390 mg/l after 48 hr by chi-squared analysis
[22] = tested on: Helicoverpa assulta; assay: Resistance factor, ratio of LD50 for sixth-instar larvae of Helicoverpa assulta YN5 to LD50 for sixth-instar larvae of Helicoverpa assulta at 21 to 3390 mg/l
[23] = tested on: Helicoverpa assulta; assay: Insecticidal activity against sixth-instar larvae of Helicoverpa assulta FJ3 at 21 to 3390 mg/l after 48 hr by chi-squared analysis
[24] = tested on: Helicoverpa assulta; assay: Resistance factor, ratio of LD50 for sixth-instar larvae of Helicoverpa assulta HN2 to LD50 for sixth-instar larvae of Helicoverpa assulta at 21 to 3390 mg/l
[25] = tested on: Helicoverpa assulta; assay: Insecticidal activity against sixth-instar larvae of Helicoverpa assulta YN4 at 21 to 3390 mg/l after 48 hr by chi-squared analysis
[26] = tested on: Helicoverpa assulta; assay: Resistance factor, ratio of LD50 for sixth-instar larvae of Helicoverpa assulta HB1 to LD50 for sixth-instar larvae of Helicoverpa assulta at 21 to 3390 mg/l
[27] = tested on: Helicoverpa assulta; assay: Resistance factor, ratio of LD50 for sixth-instar larvae of Helicoverpa assulta YN6 to LD50 for sixth-instar larvae of Helicoverpa assulta at 21 to 3390 mg/l
[28] = tested on: Helicoverpa assulta; assay: Insecticidal activity against sixth-instar larvae of Helicoverpa assulta YN1 at 21 to 3390 mg/l after 48 hr by chi-squared analysis
[29] = tested on: Helicoverpa assulta; assay: Insecticidal activity against sixth-instar larvae of Helicoverpa assulta HB1 at 21 to 3390 mg/l after 48 hr by chi-squared analysis
[30] = tested on: Helicoverpa assulta; assay: Insecticidal activity against sixth-instar larvae of Helicoverpa assulta YN8 at 21 to 3390 mg/l after 48 hr by chi-squared analysis
[31] = tested on: Helicoverpa assulta; assay: Insecticidal activity against sixth-instar larvae of Helicoverpa assulta GZ1 at 21 to 3390 mg/l after 48 hr by chi-squared analysis
[32] = tested on: Helicoverpa assulta; assay: Resistance factor, ratio of LD50 for sixth-instar larvae of Helicoverpa assulta FJ2 to LD50 for sixth-instar larvae of Helicoverpa assulta at 21 to 3390 mg/l
[33] = tested on: Helicoverpa assulta; assay: Insecticidal activity against sixth-instar larvae of Helicoverpa assulta HN2 at 21 to 3390 mg/l after 48 hr by chi-squared analysis
[34] = tested on: Helicoverpa assulta; assay: Resistance factor, ratio of LD50 for sixth-instar larvae of Helicoverpa assulta YN7 to LD50 for sixth-instar larvae of Helicoverpa assulta at 21 to 3390 mg/l
[35] = tested on: Helicoverpa assulta; assay: Resistance factor, ratio of LD50 for sixth-instar larvae of Helicoverpa assulta FJ1 to LD50 for sixth-instar larvae of Helicoverpa assulta at 21 to 3390 mg/l

Q: What does the source list for `CCOP(=S)(OCC)O/N=C(\C#N)c1ccccc1` [PHOXIM]?
A: Ratio [1]: 8.72; LD90 [2]: 56.4 µg/g; LD50 ([2]; Helicoverpa assulta, YN3, 48 h): 29.2 mg/kg; Ratio [3]: 17.9; LD90 [4]: 124 µg/g; LD50 ([4]; Helicoverpa assulta, GZ1, 48 h): 33.3 mg/kg; Ratio [5]: 14.3; Ratio [6]: 7.13; Ratio [7]: 4.5; Ratio [8]: 7.13

Q: Which LD90 [9] does the source give for `CC(C)C(C(=O)OC(C#N)c1cccc(Oc2ccccc2)c1)c1ccc(Cl)cc1` (configuration not stated) [FENVALERATE] here?
A: 507 µg/g

Q: What about the LD50 ([9]; Helicoverpa assulta, YN7, 48 h) of the same molecule?
A: 249 mg/kg

Q: And the LD90 [10]?
A: 0.723 µg/g

Q: What about the LD50 ([10]; Helicoverpa assulta, 48 h) of the same molecule?
A: 0.162 mg/kg

Q: And the LD90 [11]?
A: 673 µg/g

Q: And the LD50 ([11]; Helicoverpa assulta, YN2, 48 h)?
A: 213 mg/kg

Q: And the LD90 [12]?
A: 3.39 µg/g

Q: What about the LD50 ([12]; Helicoverpa assulta, FJ3, 48 h) of the same molecule?
A: 1.47 mg/kg

Q: And the LD90 [13]?
A: 388 µg/g

Q: What about the LD50 ([13]; Helicoverpa assulta, YN3, 48 h) of the same molecule?
A: 227 mg/kg

Q: What about the Ratio [14] of the same molecule?
A: 7.23

Q: And the LD90 [15]?
A: 9100 µg/g

Q: What about the LD50 ([15]; Helicoverpa assulta, YN8, 48 h) of the same molecule?
A: 2860 mg/kg

Q: And the Ratio [16]?
A: 4115

Q: What about the Ratio [17] of the same molecule?
A: 17622

Q: And the Ratio [18]?
A: 12.9

Q: What about the LD90 [19] of the same molecule?
A: 4847 µg/g

Q: And the LD50 ([19]; Helicoverpa assulta, YN4, 48 h)?
A: 1500 mg/kg

Q: Which results are given for `CNC(=O)ON=C(C)SC` [METHOMYL]?
A: Ratio [20]: 11.5; LD90 [21]: 168 µg/g; LD50 ([21]; Helicoverpa assulta, AH1, 48 h): 53.6 mg/kg; Ratio [22]: 9.87; LD90 [23]: 137 µg/g; LD50 ([23]; Helicoverpa assulta, FJ3, 48 h): 23.6 mg/kg; Ratio [24]: 2.93; LD90 [25]: 62.2 µg/g; LD50 ([25]; Helicoverpa assulta, YN4, 48 h): 16.7 mg/kg; Ratio [26]: 8.45; Ratio [27]: 13.7; LD90 [28]: 225 µg/g; LD50 ([28]; Helicoverpa assulta, YN1, 48 h): 45.6 mg/kg; LD90 [29]: 27.6 µg/g; LD50 ([29]; Helicoverpa assulta, HB1, 48 h): 12.2 mg/kg; LD90 [30]: 185 µg/g; LD50 ([30]; Helicoverpa assulta, YN8, 48 h): 33.3 mg/kg; LD90 [31]: 131 µg/g; LD50 ([31]; Helicoverpa assulta, GZ1, 48 h): 41.8 mg/kg; Ratio [32]: 19.9; LD90 [33]: 24.2 µg/g; LD50 ([33]; Helicoverpa assulta, HN2, 48 h): 4.24 mg/kg; Ratio [34]: 27; Ratio [35]: 14.6
